Laboratory results from patent publication US20240240224A1, “FLUORESCENT D-TYPE AMINO ACID METABOLISM MARKER-BASED METHOD FOR DETECTING ANTIBACTERIAL DRUG SENSITIVITY TEST” (priority 2020, published 2024).
≈ marks a conversion by molar mass, not a printed value.

What was measured:
S. aureus Sa22 [1] = experiment: BMD susceptibility test; type: cell-based, Staphylococcus aureus; settings: unit assumed
S. aureus ATCC29213 [2] = experiment: FaAST (FDAA metabolic labeling method); type: cell-based, Staphylococcus aureus; settings: unit assumed
Description: (§1) Take the colony to be tested that has been cultured overnight on the plate and fully mix it in normal saline to make a uniform bacterial solution. Dilute it into Cation-Adjusted Mueller Hinton Broth (CAMHB) culture medium to make a bacterial solution with OD600=0.05. • 2. Add 45 μl antibiotic solutions of different concentrations to 96-well plates (see Table 1 for antibiotic concentration gradient settings). • 3. Add 50 μl of the bacterial solution prepared in step 1 to the 96-well plate and mix well. • 4. Add 5 μl of 10 mM Cy5-DAA probe (final concentration 0.15 mM, see FIG. 1 for its structure) into each well, mix well, and cultivate in dark for 2 hours. • 5. Add 200 μl After PBS solution is diluted, the fluorescence intensity of each sample is detected by flow cytometry. The flow detection results are shown in FIG. 4-5, showing the curve of the change of antibiotic concentration gradient and fluorescence intensity. The MIC (minimum inhibitory concentration) can be obtained by referring to this curve.
(§2) Bacteria with antibiotic resistance are shown in bold in the following table.

S. aureus Sa22 [3] = experiment: FaAST (FDAA metabolic labeling method); type: cell-based, Staphylococcus aureus; settings: unit assumed
Description: as §1, §2

S. aureus Sa23 [4] = experiment: FaAST (FDAA metabolic labeling method); type: cell-based, Staphylococcus aureus; settings: unit assumed
Description: as §1, §2

S. aureus Sa23 [5] = experiment: BMD susceptibility test; type: cell-based, Staphylococcus aureus; settings: unit assumed
S. aureus ATCC29213 [6] = experiment: BMD susceptibility test; type: cell-based, Staphylococcus aureus; settings: unit assumed
E. faecium Ef26 [7] = experiment: BMD susceptibility test; type: cell-based, Enterococcus faecium; settings: unit assumed
E. faecium Ef26 [8] = experiment: FaAST (FDAA metabolic labeling method); type: cell-based, Enterococcus faecium; settings: unit assumed
Description: as §1, §2

E. faecium Ef28 [9] = experiment: BMD susceptibility test; type: cell-based, Enterococcus faecium; settings: unit assumed
E. faecium Ef28 [10] = experiment: FaAST (FDAA metabolic labeling method); type: cell-based, Enterococcus faecium; settings: unit assumed
Description: as §1, with “The flow detection results are shown in FIG. 4-5, showing the curve of the change of antibiotic concentration gradient and fluorescence intensity.” left out

E. faecalis ATCC29212 [11] = experiment: BMD susceptibility test; type: cell-based, Enterococcus faecalis; settings: unit assumed
E. faecalis ATCC29212 [12] = experiment: FaAST (FDAA metabolic labeling method); type: cell-based, Enterococcus faecalis; settings: unit assumed
Description: as §1, §2

S. aureus ATCC29213 [13] = settings: cited from earlier work
E. faecalis ATCC29212 [14] = settings: cited from earlier work
S. aureus ST398 [15] = experiment: FDAA metabolic labeling susceptibility test (Cy5-DAA probe, flow cytometry); type: cell-based; settings: Staphylococcus aureus, ST398, 2 h, read-out: MIC, FDAA
Description: as §1

S. aureus ST59 [16] = experiment: as above; type: cell-based; settings: Staphylococcus aureus, ST59, 2 h, read-out: MIC, FDAA
Description: as §1

S. aureus ST5 [17] = experiment: as above; type: cell-based; settings: Staphylococcus aureus, ST5, 2 h, read-out: MIC, FDAA
Description: as §1

S. aureus ST5 [18] = experiment: Vitek 2 drug sensitivity test; type: cell-based, Staphylococcus aureus; for Sensibility: key: S: Drug sensitive; R: Drug resistance
S. aureus ST59 [19] = experiment: Vitek 2 drug sensitivity test; type: cell-based, Staphylococcus aureus; for Sensibility: key: S: Drug sensitive; R: Drug resistance
S. aureus ST398 [20] = experiment: Vitek 2 drug sensitivity test; type: cell-based, Staphylococcus aureus; for Sensibility: key: S: Drug sensitive; R: Drug resistance
E.coli 1113 [21] = experiment: FDAA metabolic labeling susceptibility test (Cy5-DAA probe, flow cytometry); type: cell-based, Escherichia coli; settings: Escherichia coli; E.coli 1113; Cy5-DAA probe, 2 hours; read-out: MIC, FDAA
Description: (§3) The specific experimental steps are as follows: • 1. Take the colony to be tested that has been cultured overnight on the plate and fully mix it in normal saline to make a uniform bacterial solution. Dilute it into CAMHB medium to make a bacterial solution with OD600=0.05. • 2. Add 45 μl antibiotic solutions to be tested of different concentrations to 96-well plates (see Table 3 for antibiotic concentration gradient settings). • 3. Add 50 μl of bacterial solution prepared in Step 1 to the 96-well plate and mix well. • 4.5 μl of 10 mM Cy5-DAA probe was added to each well (final concentration was 0.15 mM, and its structure was shown in FIG. 1). After mixing, the probe was incubated for 2 hours in the dark. • 5. After dilution with 200 μl PBS solution, the fluorescence intensity of each sample was detected by flow cytometry. The flow detection results are shown in the attached FIG. 4-5, showing the curve of antibiotic concentration gradient and fluorescence intensity, and the MIC (minimum inhibitory concentration) is obtained by referring to this curve.

E.coli 1146 [22] = experiment: as above; type: cell-based, Escherichia coli; settings: Escherichia coli; E.coli 1146; Cy5-DAA probe, 2 hours; read-out: MIC, FDAA
Description: as §3

E.coli 1113 [23] = experiment: Vitek 2 drug sensitivity test; type: cell-based, Escherichia coli; for Sensibility: key: S: Drug sensitive; R: Drug resistance
E.coli 1146 [24] = experiment: Vitek 2 drug sensitivity test; type: cell-based, Escherichia coli; for Sensibility: key: S: Drug sensitive; R: Drug resistance
E. coli Ec11 [25] = experiment: BMD susceptibility test; type: cell-based, Escherichia coli; settings: unit assumed
E. coli Ec11 [26] = experiment: FaAST (FDAA metabolic labeling); type: cell-based, Escherichia coli; settings: unit assumed
Description: as §3
(§4) Antibiotic resistant strains are shown in bold in the table below.

Ec ATCC 25922 [27] = experiment: FaAST (FDAA metabolic labeling); type: cell-based, Escherichia coli; settings: unit assumed
Description: as §3, §4

E. coli Ec13 [28] = experiment: BMD susceptibility test; type: cell-based, Escherichia coli; settings: unit assumed
E. coli Ec13 [29] = experiment: FaAST (FDAA metabolic labeling); type: cell-based, Escherichia coli; settings: unit assumed
Description: as §3, with “cytometry.” for “cytometry. The flow detection results are shown in the attached FIG. 4-5, showing the curve of antibiotic concentration gradient and fluorescence intensity, and the MIC (minimum inhibitory concentration) is obtained by referring to this curve.”

Ec ATCC 25922 [30] = experiment: BMD susceptibility test; type: cell-based, Escherichia coli; settings: unit assumed
P. aeruginosa Pa2 [31] = experiment: BMD susceptibility test; type: cell-based, Pseudomonas aeruginosa; settings: unit assumed
P. aeruginosa Pa3 [32] = experiment: BMD susceptibility test; type: cell-based, Pseudomonas aeruginosa; settings: unit assumed
P. aeruginosa Pa2 [33] = experiment: FaAST (FDAA metabolic labeling); type: cell-based, Pseudomonas aeruginosa; settings: unit assumed
Description: as §3, §4

P. aeruginosa Pa3 [34] = experiment: FaAST (FDAA metabolic labeling); type: cell-based, Pseudomonas aeruginosa; settings: unit assumed
Description: as §3, §4

Pa ATCC 27853 [35] = experiment: FaAST (FDAA metabolic labeling); type: cell-based, Pseudomonas aeruginosa; settings: unit assumed
Description: as §3, §4

Pa ATCC 27853 [36] = experiment: BMD susceptibility test; type: cell-based, Pseudomonas aeruginosa; settings: unit assumed
A. baumannii Ab16 [37] = experiment: BMD susceptibility test; type: cell-based, Acinetobacter baumannii; settings: unit assumed
A. baumannii Ab16 [38] = experiment: FaAST (FDAA metabolic labeling); type: cell-based, Acinetobacter baumannii; settings: unit assumed
Description: as §3, with “cytometry.” for “cytometry. The flow detection results are shown in the attached FIG. 4-5, showing the curve of antibiotic concentration gradient and fluorescence intensity, and the MIC (minimum inhibitory concentration) is obtained by referring to this curve.”

A. baumannii Ab19 [39] = experiment: BMD susceptibility test; type: cell-based, Acinetobacter baumannii; settings: unit assumed
A. baumannii Ab19 [40] = experiment: FaAST (FDAA metabolic labeling); type: cell-based, Acinetobacter baumannii; settings: unit assumed
Description: as §3, §4

K. pneumoniae Kp6 [41] = experiment: BMD susceptibility test; type: cell-based, Klebsiella pneumoniae; settings: unit assumed
K. pneumoniae Kp6 [42] = experiment: FaAST (FDAA metabolic labeling); type: cell-based, Klebsiella pneumoniae; settings: unit assumed
Description: as §3, with “cytometry.” for “cytometry. The flow detection results are shown in the attached FIG. 4-5, showing the curve of antibiotic concentration gradient and fluorescence intensity, and the MIC (minimum inhibitory concentration) is obtained by referring to this curve.”

Ec ATCC 25922 [43] = settings: cited from earlier work
Pa ATCC 27853 [44] = settings: cited from earlier work

teicoplanin
BMD (MIC) (S. aureus Sa22 [1]): 0.5 µg/mL
FaAST (MIC) (S. aureus ATCC29213 [2]): 0.25 µg/mL
FaAST (MIC) (S. aureus Sa22 [3]): 1 µg/mL
FaAST (MIC) (S. aureus Sa23 [4]): 1 µg/mL
BMD (MIC) (S. aureus Sa23 [5]): 0.5 µg/mL
BMD (MIC) (S. aureus ATCC29213 [6]): ≤ 0.25 µg/mL
BMD (MIC) (E. faecium Ef26 [7]): 0.5 µg/mL
FaAST (MIC) (E. faecium Ef26 [8]): 0.25 µg/mL
BMD (MIC) (E. faecium Ef28 [9]): 16 µg/mL
FaAST (MIC) (E. faecium Ef28 [10]): 32 µg/mL
BMD (MIC) (E. faecalis ATCC29212 [11]): ≤ 0.25 µg/mL
FaAST (MIC) (E. faecalis ATCC29212 [12]): 0.5 µg/mL
CLSI QC range (S. aureus ATCC29213 [13]): 0.25-1^
CLSI QC range (E. faecalis ATCC29212 [14]): 0.25-1

CN[C@H](CC(C)C)C(=O)N[C@H]1C(=O)N[C@@H](CC(N)=O)C(=O)N[C@H]2C(=O)N[C@H]3C(=O)N[C@H](C(=O)N[C@H](C(=O)O)c4cc(O)cc(O)c4-c4cc3ccc4O)[C@H](O)c3ccc(c(Cl)c3)Oc3cc2cc(c3O[C@@H]2O[C@H](CO)[C@@H](O)[C@H](O)[C@H]2O[C@H]2C[C@](C)(N)[C@H](O)[C@H](C)O2)Oc2ccc(cc2Cl)[C@H]1O [Vancomycin, vancomycin]
MIC (S. aureus ST398 [15]): 2 µg/mL (≈ 1.38 µM)
MIC (S. aureus ST59 [16]): 2 µg/mL (≈ 1.38 µM)
MIC (S. aureus ST5 [17]): 4 µg/mL (≈ 2.76 µM)
Sensibility (S. aureus ST5 [18]): S
MIC (S. aureus ST5 [18]; Staphylococcus aureus): 1 µg/mL (≈ 0.69 µM)
Sensibility (S. aureus ST59 [19]): S
MIC (S. aureus ST59 [19]; Staphylococcus aureus): 1 µg/mL (≈ 0.69 µM)
Sensibility (S. aureus ST398 [20]): S
MIC (S. aureus ST398 [20]; Staphylococcus aureus): ≤ 0.5 µg/mL
BMD (MIC) (S. aureus Sa22 [1]): 1 µg/mL
FaAST (MIC) (S. aureus ATCC29213 [2]): 1 µg/mL
FaAST (MIC) (S. aureus Sa22 [3]): 2 µg/mL
FaAST (MIC) (S. aureus Sa23 [4]): 2 µg/mL
BMD (MIC) (S. aureus Sa23 [5]): 1 µg/mL
BMD (MIC) (S. aureus ATCC29213 [6]): 1 µg/mL
BMD (MIC) (E. faecium Ef26 [7]): 0.5 µg/mL
FaAST (MIC) (E. faecium Ef26 [8]): 0.25 µg/mL
FaAST (MIC) (E. faecium Ef28 [10]): 32 µg/mL
BMD (MIC) (E. faecalis ATCC29212 [11]): 2 µg/mL
FaAST (MIC) (E. faecalis ATCC29212 [12]): 2 µg/mL
CLSI QC range (S. aureus ATCC29213 [13]): 0.5-2
CLSI QC range (E. faecalis ATCC29212 [14]): 1-4

CO/N=C(\C(=O)N[C@@H]1C(=O)N2C(C(=O)[O-])=C(C[N+]3(C)CCCC3)CS[C@H]12)c1csc(N)n1 [Cefepime, cefepime]
MIC (E.coli 1113 [21]): ≥ 128 µg/mL
MIC (E.coli 1146 [22]): 4 µg/mL (≈ 8.32 µM)
MIC, Vitek 2 (E.coli 1113 [23]): > 64 µg/mL
Sensibility (E.coli 1113 [23]): R
Sensibility (E.coli 1146 [24]): S
MIC (E.coli 1146 [24]; Escherichia coli): ≤ 1 µg/mL
BMD (MIC) (E. coli Ec11 [25]): ≤ 0.25 µg/mL
FaAST (MIC) (E. coli Ec11 [26]): 0.5 µg/mL
FaAST (MIC) (Ec ATCC 25922 [27]): ≤ 0.25 µg/mL
BMD (MIC) (E. coli Ec13 [28]): > 64 µg/mL
FaAST (MIC) (E. coli Ec13 [29]): > 128 µg/mL
BMD (MIC) (Ec ATCC 25922 [30]): ≤ 0.25 µg/mL
BMD (MIC) (P. aeruginosa Pa2 [31]): 1 µg/mL
BMD (MIC) (P. aeruginosa Pa3 [32]): 8 µg/mL
FaAST (MIC) (P. aeruginosa Pa2 [33]): 0.5 µg/mL
FaAST (MIC) (P. aeruginosa Pa3 [34]): 4 µg/mL
FaAST (MIC) (Pa ATCC 27853 [35]): 2 µg/mL
BMD (MIC) (Pa ATCC 27853 [36]): 2 µg/mL
BMD (MIC) (A. baumannii Ab16 [37]): 128 µg/mL
FaAST (MIC) (A. baumannii Ab16 [38]): 64 µg/mL
BMD (MIC) (A. baumannii Ab19 [39]): 1 µg/mL
FaAST (MIC) (A. baumannii Ab19 [40]): 1 µg/mL
BMD (MIC) (K. pneumoniae Kp6 [41]): ≤ 0.25 µg/mL
FaAST (MIC) (K. pneumoniae Kp6 [42]): 0.5 µg/mL
CLSI QC range (Ec ATCC 25922 [43]): 0.016-0.12
CLSI QC range (Pa ATCC 27853 [44]): 0.5-4
